One may read the melting point as the temperature of the solid-liquid transition.

The values that follow come from patent US7541467B2, “Fluorescent zinc ion sensor” (Sekisui Medical Co., Ltd., priority 2004, dated 2009).

A short description of data set [1]: Fluorescence on irradiation with and without added zinc ions. Format: physicochemical.
For data set [2] the following is noted: NMR titration.
Data set [3] can be described thus: Fluorescent responses in the presence of various metal ions.
A short description of data set [4]: Titration with zinc ions monitored by ultraviolet and visible absorption spectra. The data set is classed as binding. As for the experimental part:
TQEN was titrated with zinc ions, and changes of ultraviolet and visible absorption spectra were monitored.
In the same manner as in Test Example 3, solution of 6OMeTQEN (concentration of 6OMeTQEN: 34 μM) in water-containing DMF (DMF:water=1:1) was titrated with zinc ions (0 to 68 μM), and changes in absorption were monitored by measuring ultraviolet and visible absorption spectra (FIG. 8).

Take `c1ccc2nc(CN(CCN(Cc3ccc4ccccc4n3)Cc3ccc4ccccc4n3)Cc3ccc4ccccc4n3)ccc2c1` [TQEN, N,N,N′,N′-tetrakis(2-quinolylmethyl)ethylenediamine]: the melting point was 196 to 198 °C. The “fluorescence wavelength when zinc ions were added” value in data set [1] (excitation 317 nm, DMF or DMF:water=1:1) is 383 nm. The “fluorescence without zinc ions” value in data set [1] (irradiated with light of 317 nm in DMF or DMF:water=1:1) is “substantially no fluorescence was emitted”. The “exchange rate between free and zinc-bound ligand” value in data set [2] was “slower than the time scale of NMR”. In addition, the “fluorescence intensity in the presence of cadmium ions, relative to that in the presence of zinc ions” value in data set [3] was “about 60%”.

On to `COc1ccc2nc(CN(CCN(Cc3ccc4cc(OC)ccc4n3)Cc3ccc4cc(OC)ccc4n3)Cc3ccc4cc(OC)ccc4n3)ccc2c1` [6OMeTQEN, N,N,N′,N′-tetrakis(6-methoxy-2-quinolylmethyl)-ethylenediamine], for which the melting point is 168 to 170 °C. Further, the “fluorescence wavelength when zinc ions were added” value in data set [1] (excitation 340 nm, DMF:water=1:1, 34 μM, zinc ions 0 to 68 μM) came to 410 nm. In addition, the “fluorescence without zinc ions” value in data set [1] (irradiated with light of 340 nm, DMF:water=1:1, 34 μM) is recorded as “substantially no fluorescence was emitted”. The “absorption wavelength longer than that of TQEN by” value in data set [4] (34 μM in DMF:water=1:1) is listed as “about 20 nm”. The “absorption wavelength extended to” value in data set [4] (34 μM in DMF:water=1:1, zinc ions 0 to 68 μM) is listed as “around 350 nm”.
